Key:
[1] = tested on: various murine cancer cell lines (LLC, Pan02, WEHI3, CT26, EG7, B16, MC38); test: RNA-seq analysis of splice-neoantigen producing events in various murine cancer cell lines; format: cell-based; settings: LLC, Pan02, WEHI3, CT26, EG7, B16
Experimental: (§1) [FIG. 5-2] Continuation of FIG. 5. D and E: RT-PCR analysis for splice-neoantigen coding forms (splice-NA forms) in MC38 cells treated with 10 µM Compound 1 or vehicle control (0.1% DMSO) for 6 hours. Actb served as a loading control. * represents p<0.05, ** represents p<0.01, and *** represents p<0.001. F: Splice-neoantigen producing rates calculated from RNA-seq data (n=3 biological replicates) are indicated as the APSI (Compound 1-DMSO). All data are shown as the mean±SEM. All experiments were performed at least twice. Statistical significance was determined using unpaired Student's t-test for (B) and (E).
Then, whether the Compound 1-induced splice-neoantigens are shared across cancer type was examined using murine lung carcinoma LLC, pancreatic ductal adenocarcinoma Pan02, leukemia WEHI3, colorectal adenocarcinoma CT26, lymphoma EG7, and skin melanoma B16 cells.
The effects of Compound 2 on RNA splicing events (splicing alterations) producing the aforementioned six splice-neoantigens in various murine cancer cell lines were investigated through RNA-Seq analysis in the same manner as in FIG. 5-2F, except that Compound 1 was replaced with Compound 2 (FIG. 8).

[2] = tested on: IKBKAP gene with IVS20+6T>C mutation; settings: in vitro and in vivo; cited from earlier work
MC38 cells [3] = test: RT-PCR analysis with neojunction primers; format: cell-based, murine; settings: 10 μM, 6 hours
Experimental: as §1
In addition to the RNA-seq analysis, the induction of these splice-neoantigen-coding transcripts via treatment with Compound 1 was also validated using RT-PCR analysis with neojunction primers in MC38 cells (FIGS. 5-2D and 5-2E). The immunogenicity of the identified splice-neoantigens was confirmed using an IFN-γ ELISpot assay.
Total RNA was extracted from cells using a RNeasy Mini Kit (Qiagen), according to the manufacturer's protocol, and subjected to reverse transcription using a High Capacity cDNA Reverse Transcription Kit (Applied Biosystems, Foster City, CA). Genes were amplified with KOD One DNA polymerase (ToYoBo) and target-specific primer sets. […] Ethidium bromide-stained images were captured using a ChemiDoc MP Imaging System and the data were analyzed using ImageJ software. […]

[4] = Systemic administration of a high dose to normal mice for 4 weeks (autoimmune reactions); format: in vivo
Experimental: [FIG. 2-2] Continuation of FIG. 2. H to M: Compound 1 (100 mg/kg) or vehicle control (0.5% CMC-Na) was orally administered to 7-week-old female C57BL/6N mice twice daily for 7 continuous days (J and K) or once daily for 4 weeks (I, L, and M), while αPD-L1 antibody or isotype control (isotype IgG) was intraperitoneally injected once weekly. The experimental scheme is indicated in (H). Body weights (n=6/group) were monitored weekly (I). Mice were sacrificed on day 7 (n=5/group) to analyze peripheral blood (J) and spleen (K).
[FIG. 2-3] Continuation of FIG. 2. Land M: Mice were sacrificed on day 28 (n=3/group) to perform CD8 immunohistochemical staining (IHC). Scale bars represent 50 μm. The number of CD8+ cells was counted using ImageJ software in three areas of each tissue. All data are shown as the mean±SEM. Experiments were performed at least twice for B to G, or once for others. *** p<0.001 vs. vehicle control was determined using one-way ANOVA followed by Bonferroni's multiple comparisons test.
Next, to determine whether the enhancement of cancer immunity by co-administration of Compound 1 and αPD-L1 raises concerns regarding autoimmune reactions, a high dose of Compound 1 was systemically administered to normal mice for 4 weeks (FIG. 2-2H).

[5] = tested on: colon, lung, and liver tissues; test: RNA-seq of normal tissues from Compound 1-administered mice; format: in vivo
Source text: In addition, the RNA-seq data corresponding to colon, lung, and liver tissues from Compound 1-administered mice was also examined to analyze the extent of splicing alterations. […] Considering that immune responses were not triggered by Compound 1 in these tissues, these altered splicing events in normal tissues were likely irrelevant to immunogenicity (FIGS. 2-2I to 2-3M).

MC38 cells [6] = test: Cell proliferation and cell death, CCK-8 and LDH assays; format: cell-based, murine; settings: concentrations effective in vivo
Experimental: [FIG. 1-1] FIG. 1. Chemical activation of SRSFs exerts antitumor effects in a CD8^+ T cell-dependent manner and potentiates the response to PD-1 blockade. A: Experimental procedure involving an MC38 tumor-bearing model. B and C: Tumor volumes (B) and survival (C) are shown (n=12/group). ** represents p<0.01; and *** represents p<0.001. D and E: MC38 cells were treated with Compound 1 for 72 hours (D) or for the indicated time (E). Cell proliferation and cell death were measured using CCK-8 and LDH assays, respectively (n=3/group). F and G: Representative images (F) and quantitative data (G) of flow cytometry are shown (n=[…]/group). * represents p<0.05. H: Experimental procedure of antibody injection in an MC38 tumor-bearing model.
First, in vivo activity was assessed using syngeneic MC38 tumors intradermally transplanted into […] mice (FIG. 1-1A).

Clc1nc(NCc2ccco2)c2[nH]cnc2n1 [Compound 1]
induced splice alterations shared across cancer type [1]: shared in most of the examined cells
aberrant splicing in the IKBKAP gene [2]: able to improve
splice-neoantigen-coding transcripts (MC38 cells [3]): induction
leukocyte numbers and biochemical parameters in peripheral blood ([4]; data not shown): no alterations were observed
spleen weight, leukocyte numbers, and expression of T cell activation markers in spleen and peripheral blood ([4]; day 7, with or without αPD-L1): no effect
histological analysis of non-malignant tissues: CD8^+ T cells, inflammatory lesions ([4]; day 28, irrespective of co-treatment with αPD-L1): did not result in the accumulation of CD8^+ T cells or appearance of inflammatory lesions
body weight changes ([4]; throughout 4 weeks, with or without αPD-L1): comparable
induced splicing events fewer in normal tissues than in MC38 cells ([5]; colon, lung, liver): 50-60%
validated splice-neoantigen forms in normal tissues ([5]; data not shown): none of the validated splice-neoantigen forms were significantly induced
cytotoxicity or cytostasis in vitro (MC38 cells [6]): not associated with cytotoxicity or cytostasis

Reference: US20240423988A1, “Improvement of Tumor Immunogenicity by Means of Splicing-Controlling Compound” (Kyoto University, priority 2021, published 2024)
